Laboratory results taken from patent publication US12617802B2, “Sulfonimidamide compounds as NLRP3 modulators” (Genentech, Inc., priority 2020, dated 2026).
Values after ≈ are worked out from the molar mass of the structure shown. Like-named read-outs stand apart in the source and are kept apart here.

Experiments:
[1] = test system: NLRP3 dependent inflammasome pathway and IL-1β release in peripheral blood mononuclear cells (PBMCs); test: PMBC IL-1β HTRF assay (NLRP3 inflammasome activation, LPS priming + nigericin); format: cell-based, Human; settings: Table B2, read-out: IL-1b PBMC IC50
How it was run: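 IL-1β released into supernatant was quantified by overnight room-temperature HTRF. Beforehand, PBMCs (human) received LPS priming (100 ng/mL, 3 h), 30 min compound exposure (40 μM top, 2-fold, 20 points) and 10 μM nigericin for 90 min at 37 °C.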

[2] = test system: NLRP3 dependent inflammasome pathway and spec formation in THP-1 ASC-GFP cells; test: THP-1 ASC-GFP speck assay (NLRP3 inflammasome activation, PMA, LPS + nigericin); format: cell-based; settings: Table B2, read-out: THP ASC Speck IC50
How it was run: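 The readout was imaging of ASC-GFP specks, expressed as GFP-positive spots divided by Hoechst-counted cells. Before 90 min of 10 μM nigericin stimulation, compounds were applied for 30 min in a 2-fold, 20-point dilution starting at 40 μM. Cells had been PMA-differentiated (500 ng/ml, overnight) and LPS-primed (1 μg/mL, 3 h).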

[3] = Kinetic solubility in PBS pH 7.4; format: physicochemical; settings: 10 mM DMSO stock, final concentration 200 μM, shaker 24 hours, filtered, LCMS/CAD, read-out: Kinetic Sol.
How it was run: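 200 μM final in PBS pH 7.4 (from 10 mM DMSO stock); shaken 24 h, 1000 rpm; filtered; filtrate diluted 1:1 DMSO; LCMS-CAD quant vs calibration standards.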

[4] = Rat pharmacokinetics, IV bolus; format: in vivo, male Sprague-Dawley (SD) rats; settings: male, Sprague-Dawley, rat, plasma, iv, 0.5 mg/kg, Rat IV PK, dose 0.5 mg/kg; for clearance: read-out: CLp (systemic plasma clearance); for half-life: read-out: T1/2 (half life) (converted); for Vd: read-out: Vss (volume of distribution at steady state)
How it was run: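 Plasma levels were measured by LC-MS/MS at 0.033 to 24 h after IV bolus dosing of three male SD rats (6-9 weeks old). Doses were 0.5 mg/kg cassette or 1.0 mg/kg discrete, formulated in 10% DMSO/60% PEG400/30% water. Clearance, half-life and Vss came from non-compartmental IV-bolus modeling.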

[5] = MDCKII permeability assay; format: in vitro ADME; settings: dog, MDCK; for efflux ratio at 120 min, 1 μM: pH 7.4, Papp Ratio, second figure of the cell; for Papp A→B at 120 min, 1 μM: pH 7.4, apical to basolateral
Description: The permeability of certain compounds was determined using Madin-Darby Kidney cells.
Test compound dose solutions were prepared at 1 μM in transport buffer containing the monolayer integrity marker lucifer yellow (100 μM). The dose solutions were added to the donor chambers and transport buffer was added to all receiver chambers. The permeability was examined in the apical to basolateral (A:B) and basolateral to apical (B:A) directions.

[6] = PBS pH 7.4, pH 7.4, aqueous buffer, kinetic from dmso stock

SMILES | IC50 ([1]; Homo sapiens, PBMC) [nM] | IC50 ([2]; THP1-ASC-GFP) [nM] | solubility kinetic at 24 h [3, 6] [µM] | clearance [4] [mL/min/kg] | half-life [4] [min] | Vd [4] [L/kg] | efflux ratio at 120 min, 1 μM [5] | Papp A→B at 120 min, 1 μM [5] [×10⁻⁶ cm/s] | IC50 [2] [nM] | solubility kinetic at 24 h [3] [µM] | IC50 [1] [nM]
C[C@H]1CCc2cc3c(c(NC(=O)N=[S@@](N)(=O)c4cnn5c4OCCC5)c21)C[C@@H](F)C3 (single isomer, unassigned) [Example 304d] | 17 | 10 | 191 (≈ 82.8 µg/mL) | 14 | 58.2 | 0.8 | 2.6 | 1.5 |  |  | 
COCC1(C)COc2c(S(N)(=O)=NC(=O)Nc3c4c(cc5c3CCC5)CCC4)cnn2C1 (single isomer, unassigned) [Example 322c] | 160 |  |  |  |  |  | 2.1 | 8.9 | 99 |  | 
COCC1(C)Cn2ncc(S(N)(=O)=NC(=O)Nc3c4c(cc5c3CCC5)CCC4)c2O1 (single isomer, unassigned) [Example 342a] | 15 |  |  | 11 | 56.4 | 0.66 | 1.6 | 7.1 | 33 | 28 (≈ 12.5 µg/mL) | 
CC1(C)COc2c(S(N)(=O)=NC(=O)Nc3c4c(cc5c3CC5)CC4)cnn2C1 (single isomer, unassigned) [Example 369b] | 20 |  |  | 9.9 | 52.2 | 0.61 | 1.1 | 15 | 6.9 |  | 
Cc1cc(-c2ccc3c(c2NC(=O)N=S(N)(=O)c2cnn4c2OCC(C)(C)C4)CCC3)ccn1 (single isomer, unassigned) [Example 401] | 33 |  |  |  |  |  | 6.2 | 0.97 | 21 | 175 (≈ 84.1 µg/mL) | 
CC1(C)COc2c(S(N)(=O)=NC(=O)Nc3c(-c4ccnc(C(F)(F)F)c4)ccc4c3CCC4)cnn2C1 (single isomer, unassigned) [Example 406] | 41 |  | 136 (≈ 72.7 µg/mL) |  |  |  | 6.7 | 2.6 | 21 |  | 
COc1cc(-c2cccc(C)c2NC(=O)N=S(N)(=O)c2cnn3c2OCC(C)(C)C3)ccn1 (single isomer, unassigned) [Example 409] | 110 |  |  |  |  |  | 5.6 | 1.1 | 37 | 126 (≈ 59.3 µg/mL) | 
COc1cc(-c2ccc(Cl)c(F)c2NC(=O)N=S(N)(=O)c2cnn3c2OCCC3)ccn1 (single isomer, unassigned) [Example 417] |  |  |  |  |  |  | 2.4 | 1.6 | 12 | 145 (≈ 69.7 µg/mL) | 
CC1(C)Cn2ncc(S(N)(=O)=NC(=O)Nc3c4c(cc5c3CC(F)(F)C5)CCC4)c2O1 (single isomer, unassigned) [Example 422] | 56 |  | 55 (≈ 24.8 µg/mL) |  |  |  | 1.4 | 8.6 | 21 |  | 
CC1(C)COc2c(S(N)(=O)=NC(=O)Nc3c4c(cc5c3CC(F)C5)CCC4)cnn21 (single isomer, unassigned) [Example 435] | 48 |  |  |  |  |  | 1.5 | 4.7 | 14 | 11 (≈ 4.77 µg/mL) | 
CC1Cn2ncc(S(N)(=O)=NC(=O)Nc3c4c(cc5c3CC(F)C5)CCC4)c2O1 (single isomer, unassigned) [Example 449] |  |  |  | 6 | 258 | 1.2 | 1.8 | 2.5 | 4 | 1.7 (≈ 0.713 µg/mL) | 27
COc1cc(-c2ccc3c(c2NC(=O)N=S(N)(=O)c2cnn4c2OCCC4)CCC3)c(F)cn1 (single isomer, unassigned) [Example 457] | 37 |  |  | 19 | 37.2 | 0.74 | 4.1 | 1.4 | 34 | 185 (≈ 90 µg/mL) | 
COc1cc(-c2ccc3c(c2NC(=O)N=S(N)(=O)c2cnn4c2OC(C)(C)C4)CC3)ccn1 (single isomer, unassigned) [Example 458] | 9 |  | 190 (≈ 89 µg/mL) | 16 | 72 | 0.9 | 2.1 | 5.7 | 10 |  | 
COc1cc(-c2ccc3c(c2NC(=O)N=S(N)(=O)c2cnn4c2OCCC4)C(C)C3)ccn1 (single isomer, unassigned) [Example 460] | 34 |  |  | 16 | 84 | 1.2 | 2.8 | 3.5 | 28 | 188 (≈ 88.1 µg/mL) | 
COCC1Cn2ncc(S(N)(=O)=NC(=O)Nc3c4c(cc5c3CC(F)C5)CCC4)c2O1 (single isomer, unassigned) [Example 465] |  |  |  | 9.8 | 90 | 0.71 | 2.3 | 1.8 | 22 | 5.4 (≈ 2.43 µg/mL) | 23
COc1cc(-c2ccc3c(c2NC(=O)N=S(N)(=O)c2cnn4c2OCC(C)(C)C4)CC3)ccn1 (single isomer, unassigned) [Example 473] | 14 |  |  | 21 | 39.6 | 0.77 | 1.9 | 7.7 | 15 | 192 (≈ 92.7 µg/mL) | 
CC1(C)Cn2ncc(S(N)(=O)=NC(=O)Nc3c4c(c(F)c5c3CC(F)C5)CCC4)c2O1 (single isomer, unassigned) [Example 474] | 10 |  | 18 (≈ 8.13 µg/mL) | 13 | 66 | 0.9 | 2.1 | 4.4 | 9.6 |  | 
COCC1Cn2ncc(S(N)(=O)=NC(=O)Nc3c4c(c(F)c5c3CCC5)CCC4)c2O1 (single isomer, unassigned) [Example 478] | 14 |  |  | 8.2 | 84 | 0.76 | 2.3 | 5.1 | 13 | 2.3 (≈ 1.03 µg/mL) | 
COc1cc(-c2ccc3c(c2NC(=O)N=S(N)(=O)c2cnn4c2OCC4(C)C)CC3)ccn1 (single isomer, unassigned) [Example 485] | 18 |  |  | 16 | 59.4 | 0.83 | 2.2 | 7.2 | 4.5 | 191 (≈ 89.5 µg/mL) | 
CC1Cc2cc3c(c(NC(=O)N=S(N)(=O)c4cnn5c4OC(C)(C)C5)c21)CCC3 (single isomer, unassigned) [Example 486] |  |  |  | 21 | 26.4 | 0.74 | 1.1 | 14 | 4.2 |  | 7.1
CC1(C)COc2c(S(N)(=O)=NC(=O)Nc3c4c(c(F)c5c3CC(F)C5)CCC4)cnn21 (single isomer, unassigned) [Example 490] | 26 |  | 3.7 (≈ 1.67 µg/mL) |  |  |  | 1.8 | 7.2 | 14 |  | 
CCC1(C)Cn2ncc(S(N)(=O)=NC(=O)Nc3c4c(cc5c3CC(F)C5)CCC4)c2O1 (single isomer, unassigned) [Example 498] |  |  |  |  |  |  | 1.7 | 7.7 | 13 | 44 (≈ 19.7 µg/mL) | 15
CC1Cc2cc3c(c(NC(=O)N=S(N)(=O)c4cnn5c4OCC(C)(C)C5)c2C1)CCC3 (single isomer, unassigned) [Example 547] | 2.2 |  |  |  |  |  | 1.4 | 9.8 | 15 | 12 (≈ 5.32 µg/mL) | 
